From patent publication US11753407B2, “Compounds for treating spinal muscular atrophy” (PTC Therapeutics, Inc., priority 2012, dated 2023)

Tests used:
[1] = test system: SMN2 minigene mRNA (SMN2-A minigene) in HEK293H cells; experiment: SMN2 minigene mRNA splicing RT-qPCR assay in cultured cells; format: cell-based, human; details: Homo sapiens, HEK293-H; concentration increasing full length SMN2 mRNA 1.5-fold relative to vehicle-treated cells; HEK293H cells with SMN2-A minigene, 24 hours, 7-point concentration data; read-out: EC1.5x for production of full length SMN2 mRNA
Outline: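 EC1.5× = concentration raising full-length SMN2 minigene mRNA 1.5-fold over vehicle, from 7-point curves in duplicate. Stably transfected HEK293H cells exposed 24 h at 37 °C; lysates assayed by multiplex RT-qPCR, minigene FL signal normalized to GAPDH via modified ΔΔCt.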

[2] = test system: Smn protein in SMA patient fibroblast cells (GM03813); experiment: Smn protein assay in cultured cells (SMN HTRF); format: cell-based, human; details: SMA patient fibroblast cells, 48 hours; for EC1.5x for Smn protein expression: 7-point concentration curve, SMN HTRF, concentration producing 1.5 times Smn protein vs DMSO vehicle control; for maximum fold (Fold) increase of Smn protein: 7-point concentration data, fold relative to vehicle control
Outline: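 Smn protein quantified by HTRF with anti-SMN d2/kryptate pair, 665/620 nm ratio blank-corrected, in RIPA lysates of GM03813 fibroblasts after 48 h compound exposure (7 concentrations, 3.16-fold steps, triplicates). Values: concentration producing 1.5× vehicle Smn level, and maximal fold increase.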

SMILES | EC (1.5-fold increase) [1] | EC1.5x for Smn protein expression [2] | maximum fold (Fold) increase of Smn protein [2]
CN1CCN(c2ccc3nc(-c4ccc5nccn5c4)cc(=O)n3c2)CC1 [Compound 802, 2-(imidazo[1,2-a]pyridin-6-yl)-7-(4-methylpiperazin-1-yl)-4H-pyrido[1,2-a]pyrimidin-4-one] | 1 to 3 µM | * (An EC1.5× for Smn protein expression between >3 μM and ≤10 μM is indicated by one star (*)) | ***** (a fold increase >1.65 is indicated by five stars (*****))
Cc1nc2c(F)cc(-c3cc(=O)n4cc(N5CCN6CCC[C@H]6C5)ccc4n3)cc2o1 [Compound 803, 2-(4-fluoro-2-methyl-1,3-benzoxazol-6-yl)-7-[(8aS)-hexahydropyrrolo[1,2-a]pyrazin-2(1H)-yl]-4H-pyrido[1,2-a]pyrimidin-4-one] | < 0.1 µM | **** (an EC1.5x≤0.3 μM is indicated by four stars (****)) | ***** (a fold increase >1.65 is indicated by five stars (*****))
Cc1cn2nc(-c3cc(=O)n4cc(N5CCC6(CC5)CNC6)ccc4n3)cc2c(C)n1 [Compound 804, 7-(2,7-diazaspiro[3.5]non-7-yl)-2-(4,6-dimethylpyrazolo[1,5-a]pyrazin-2-yl)-4H-pyrido[1,2-a]pyrimidin-4-one] | < 0.1 µM | **** (an EC1.5x≤0.3 μM is indicated by four stars (****)) | ***** (a fold increase >1.65 is indicated by five stars (*****))
Cc1nc2ccc(-c3cc(=O)n4cc(N5CCN(C)CC5)ccc4n3)cn2n1 [Compound 805, 7-(4-methylpiperazin-1-yl)-2-(2-methyl[1,2,4]triazolo[1,5-a]pyridin-6-yl)-4H-pyrido[1,2-a]pyrimidin-4-one] | 0.1 to 0.3 µM | *** (an EC1.5× between >0.3 μM and ≤1 μM is indicated by three stars (***)) | ***** (a fold increase >1.65 is indicated by five stars (*****))
Cc1cn2cc(-c3cc(=O)n4cc(N5CCN(C)CC5)ccc4n3)cc(C(F)(F)F)c2n1 [Compound 806, 7-(4-methylpiperazin-1-yl)-2-[2-methyl-8-(trifluoromethyl)imidazo[1,2-a]pyridin-6-yl]-4H-pyrido[1,2-a]pyrimidin-4-one] | < 0.1 µM | **** (an EC1.5x≤0.3 μM is indicated by four stars (****)) | ***** (a fold increase >1.65 is indicated by five stars (*****))
Cc1cn2cc(-c3cc(=O)n4cc(N5CCN(C)CC5)ccc4n3)cc(C#N)c2n1 [Compound 807, 2-methyl-6-[7-(4-methylpiperazin-1-yl)-4-oxo-4H-pyrido[1,2-a]pyrimidin-2-yl]imidazo[1,2-a]pyridine-8-carbonitrile] | < 0.1 µM | **** (an EC1.5x≤0.3 μM is indicated by four stars (****)) | ***** (a fold increase >1.65 is indicated by five stars (*****))
Cc1cn2cc(-c3cc(=O)n4cc(N5CCN(C)CC5)ccc4n3)cc(C)c2n1 [Compound 808, 2-(2,8-dimethylimidazo[1,2-a]pyridin-6-yl)-7-(4-methylpiperazin-1-yl)-4H-pyrido[1,2-a]pyrimidin-4-one] | < 0.1 µM | **** (an EC1.5x≤0.3 μM is indicated by four stars (****)) | ***** (a fold increase >1.65 is indicated by five stars (*****))
Cc1cn2cc(-c3cc(=O)n4cc(N5CCNC6(CC6)C5)ccc4n3)cc(C)c2n1 [Compound 809, 7-(4,7-diazaspiro[2.5]oct-7-yl)-2-(2,8-dimethylimidazo[1,2-a]pyridin-6-yl)-4H-pyrido[1,2-a]pyrimidin-4-one] | < 0.1 µM | **** (an EC1.5x≤0.3 μM is indicated by four stars (****)) | ***** (a fold increase >1.65 is indicated by five stars (*****))
Cc1cn2cc(-c3cc(=O)n4cc(C5CCN(C)CC5)ccc4n3)cc(F)c2n1 [Compound 810, 2-(8-fluoro-2-methylimidazo[1,2-a]pyridin-6-yl)-7-(1-methylpiperidin-4-yl)-4H-pyrido[1,2-a]pyrimidin-4-one] | < 0.1 µM | **** (an EC1.5x≤0.3 μM is indicated by four stars (****)) | ***** (a fold increase >1.65 is indicated by five stars (*****))
Cc1cn2cc(-c3cc(=O)n4cc(C5(O)CCNCC5)ccc4n3)cc(F)c2n1 [Compound 811, 2-(8-fluoro-2-methylimidazo[1,2-a]pyridin-6-yl)-7-(4-hydroxypiperidin-4-yl)-4H-pyrido[1,2-a]pyrimidin-4-one] | 0.3 to 1 µM | *** (an EC1.5× between >0.3 μM and ≤1 μM is indicated by three stars (***)) | ***** (a fold increase >1.65 is indicated by five stars (*****))
CCc1nc(C)cn2nc(-c3cc(=O)n4cc(N5CCN6CCC[C@H]6C5)ccc4n3)cc12 [Compound 812, 2-(4-ethyl-6-methylpyrazolo[1,5-a]pyrazin-2-yl)-7-[(8aS)-hexahydropyrrolo[1,2-a]pyrazin-2(1H)-yl]-4H-pyrido[1,2-a]pyrimidin-4-one] | < 0.1 µM | **** (an EC1.5x≤0.3 μM is indicated by four stars (****)) | ***** (a fold increase >1.65 is indicated by five stars (*****))
CCc1nc(C)cn2nc(-c3cc(=O)n4cc(N5CCN6CCC[C@@H]6C5)ccc4n3)cc12 [Compound 813, 2-(4-ethyl-6-methylpyrazolo[1,5-a]pyrazin-2-yl)-7-[(8aR)-hexahydropyrrolo[1,2-a]pyrazin-2(1H)-yl]-4H-pyrido[1,2-a]pyrimidin-4-one] | < 0.1 µM | **** (an EC1.5x≤0.3 μM is indicated by four stars (****)) | ***** (a fold increase >1.65 is indicated by five stars (*****))
CCc1nc(C)cn2nc(-c3cc(=O)n4cc(N5CC[C@@H](N(C)C)C5)ccc4n3)cc12 [Compound 814, 7-[(3R)-3-(dimethylamino)pyrrolidin-1-yl]-2-(4-ethyl-6-methylpyrazolo[1,5-a]pyrazin-2-yl)-4H-pyrido[1,2-a]pyrimidin-4-one] | < 0.1 µM | **** (an EC1.5x≤0.3 μM is indicated by four stars (****)) | ***** (a fold increase >1.65 is indicated by five stars (*****))
CCc1nc(C)cn2nc(-c3cc(=O)n4cc(N5CC[C@H](N(C)C)C5)ccc4n3)cc12 [Compound 815, 7-[(3S)-3-(dimethylamino)pyrrolidin-1-yl]-2-(4-ethyl-6-methylpyrazolo[1,5-a]pyrazin-2-yl)-4H-pyrido[1,2-a]pyrimidin-4-one] | < 0.1 µM | **** (an EC1.5x≤0.3 μM is indicated by four stars (****)) | ***** (a fold increase >1.65 is indicated by five stars (*****))
Cc1cn2cc(-c3cc(=O)n4cc(N5CCN6CCC[C@@]6(C)C5)ccc4n3)cc(F)c2n1 [Compound 816, 2-(8-fluoro-2-methylimidazo[1,2-a]pyridin-6-yl)-7-[(8aS)-8a-methylhexahydropyrrolo[1,2-a]pyrazin-2(1H)-yl]-4H-pyrido[1,2-a]pyrimidin-4-one] | < 0.1 µM | **** (an EC1.5x≤0.3 μM is indicated by four stars (****)) | **** (a fold increase between >1.5 and ≤1.65 is indicated by four stars (****))
CCc1nc(C)cn2nc(-c3cc(=O)n4cc(N5CCN(CC)CC5)cc(C)c4n3)cc12 [Compound 817, 2-(4-ethyl-6-methylpyrazolo[1,5-a]pyrazin-2-yl)-7-(4-ethylpiperazin-1-yl)-9-methyl-4H-pyrido[1,2-a]pyrimidin-4-one] | < 0.1 µM | **** (an EC1.5x≤0.3 μM is indicated by four stars (****)) | ***** (a fold increase >1.65 is indicated by five stars (*****))
CCc1nc(C)cn2nc(-c3cc(=O)n4cc(N5CCN6CCC[C@H]6C5)cc(C)c4n3)cc12 [Compound 818, 2-(4-ethyl-6-methylpyrazolo[1,5-a]pyrazin-2-yl)-7-[(8aS)-hexahydropyrrolo[1,2-a]pyrazin-2(1H)-yl]-9-methyl-4H-pyrido[1,2-a]pyrimidin-4-one] | 0.1 to 0.3 µM | *** (an EC1.5× between >0.3 μM and ≤1 μM is indicated by three stars (***)) | ***** (a fold increase >1.65 is indicated by five stars (*****))
